According to patent US20250197373A1, “SMALL MOLECULE COMPOUND OR SALT THEREOF OR SOLVATE OF THEM, GUANINE NUCLEOTIDE-BINDING PROTEIN G(Q) SUBUNIT ALPHA (GNAQ) INHIBITOR CONTAINING THE SAME AND METHOD FOR TREATING AND/OR PREVENTING CANCER” (INDUSTRIAL TECHNOLOGY RESEARCH INSTITUTE, priority 2023, published 2025):

Tests used:
Type in all cases: cell-based
MCF-7 GNAQ (T96S) cells = assay: Inhibition of growth of mammary gland cancer cells MCF-7 GNAQ (T96S) (PrestoBlue); details: Homo sapiens, MCF7, 168 h, 7 days culture, 2% fetal bovine serum, read-out: Inhibitory activity (evaluated by IC50)
Description: Human mammary gland cancer cells, MCF-7 cells and MCF-7 GNAQ (T96S) cells (MCF-7 cells expressing GNAQ (T96S) after GNAQ gene deletion) were cultured in MEM medium.
1×10^3 of the cells mentioned above were seeded in a 96-well plate and cultured overnight (at least 16 hours) in a carbon dioxide incubator.
(§1) After overnight incubation, the supernatant was removed. Next, after 200 μL of cell culture medium (containing 2% fetal bovine serum) containing different concentrations of test compound was added to each well of the 96-well plate, the 96-well plate was placed in a 5% carbon dioxide incubator at 37° C. for 7 days further culture. After that, an additional 30 μL of diluted PrestoBlue™ Cell Viability Reagent (Catalog Number: A13261; Thermo Fisher Scientific) (4 μL stock solution and 26 μL culture medium) was added to each well of the 96-well plate and the reaction was continued for further about 1 hour.
Finally, the fluorescence value at the wavelength of 535/615 nm of each well was read with a plate enzyme immunoassay analyzer, and the inhibitory rate of the compound on mammary gland cancer cells were calculated using the following formula.
Moreover, the half maximal inhibitory concentration (IC50) of the compound on the growth of mammary gland cancer cells was calculated with the inhibitory rate of the compound on mammary gland cancer cells at each concentration through the online half maximal inhibitory concentration (IC50) calculation software, IC50 Calculator, provided by AAT Bioquest company on its website (https://www.aatbio.com/tools/ic50-calculator).
Finally, the inhibition of the compound on the growth of mammary gland cancer cells was evaluated by the calculated half maximal inhibitory concentration (IC50) of the compound on the growth of mammary gland cancer cells.
The inhibition of the compound on the growth of breast cancer cells was evaluated by the half maximal inhibitory concentration (IC50) of the compound (one of Compound 1 to Compound 15 prepared above) on the growth of mammary gland cancer cells through the human mammary gland cancer cell line MCF-7 and the human mammary gland cancer cell line MCF-7 GNAQ (T96S) expressing the mutated gene.

[1] = Half cytotoxic concentration on normal mammary gland epithelial cells MCF-10A-5E (PrestoBlue); details: human, MCF-10A-5E normal mammary gland epithelial cells, 5 days culture, 10% horse serum, read-out: Non-toxicity (evaluated by CC50)
Description: Human normal mammary epithelial cells, MCF-10A-5E cells, were cultured in DMEM/F12K (1:1) medium, wherein Insulin-Transferrin-Selenium (ITS-G) (41400045; Thermo Fisher Scientific) diluted 1,000-fold for use, EGF stock (1 mg/mL) (10605-HNAE; Sino Biological) diluted 2,000-fold for use and Hydrocortisone stock (1 mg/mL) (S1696; Selleck Chemicals) diluted 2,000-fold for use were additionally added to the medium.
5×10^3 of the cells mentioned above were seeded in a 96-well plate and cultured overnight (at least 16 hours) in a carbon dioxide incubator.
as §1, with “(containing 10% horse” for “(containing 2% fetal bovine”, “for 5” for “for 7”
Finally, the fluorescence value at the wavelength of 535/615 nm of each well was read with a plate enzyme immunoassay analyzer, and the fatality rate of the compound on normal mammary gland epithelial cells were calculated using the following formula.
Moreover, the half cytotoxic concentration (50% cytotoxic concentration, CC50) of the compound on normal mammary gland epithelial cells was calculated with the fatality rate of compound on normal mammary gland epithelial cells at each concentration through the online half maximal inhibitory concentration (IC50) calculation software, ICso Calculator, provided by AAT Bioquest company on its website (https://www.aatbio.com/tools/ic50-calculator).
Finally, toxicity of the compound on normal mammary gland epithelial cells was evaluated by the calculated half cytotoxic concentration (CC50) of the compound on normal mammary gland epithelial cells.
In addition, the toxicity of the compound on normal mammary gland epithelial cells was evaluated by the half cytotoxic concentration (CC50) of the compound (one of Compound 1 to Compound 15 prepared above) on normal mammary gland epithelial cells through the human normal mammary gland epithelial cell line MCF-T0A-5E.

MDA-MB-231 = assay: Inhibition of growth of triple-negative breast cancer cells MDA-MB-231 (PrestoBlue); details: Homo sapiens, 168 h, 7 days culture, 2% fetal bovine serum, read-out: Inhibitory activity (evaluated by IC50)
Description: (§2) Triple-negative breast cancer cells, MDA-MB-231 and MDA-MB-231-OE-GNAQ (T96S) (additionally expressing GNAQ (T96S)) were cultured in L-15 medium and in a temperature-controlled incubator without need of additional offer of 5% carbon dioxide.
(§3) 1×10^3 of the cells mentioned above were seeded in a 96-well plate, placed in a temperature-controlled incubator and cultured overnight (at least 16 hours).
as §1, with “a” for “a 5% carbon dioxide incubator at”, “C. incubator” for “C.”
(§4) Finally, the fluorescence value at the wavelength of 535/615 nm of each well was read with a plate enzyme immunoassay analyzer, and the inhibitory rate of the compound on triple-negative breast cancer cells were calculated using the following formula.
(§5) Moreover, the half maximal inhibitory concentration (IC50) of the compound on the growth of triple-negative breast cancer cells was calculated with the inhibitory rate of compound on triple-negative breast cancer cells at each concentration through the online half maximal inhibitory concentration (IC50) calculation software, IC50 Calculator, provided by AAT Bioquest company on its website (https://www.aatbio.com/tools/ic50-calculator).
(§6) Finally, the inhibition of the compound on the growth of triple-negative breast cancer cells was evaluated by the calculated half maximal inhibitory concentration (IC50) of the compound on the growth of triple-negative breast cancer cells.
(§7) The inhibition of the compound on the growth of triple-negative breast cancer cells was evaluated by the half maximal inhibitory concentration (IC50) of the compound (one of Compound 1 to Compound 15 prepared above) on the growth of triple-negative breast cancer cells through the human triple-negative breast cancer cell lines MDA-MB-231 and MDA-MB-231-OE-GNAQ (T96S) (additionally expressing GNAQ (T96S)).

[2] = tested on: MDA-MB-231-OE-GNAQ (T96S); assay: Inhibition of growth of triple-negative breast cancer cells MDA-MB-231-OE-GNAQ (T96S) (PrestoBlue); details: Homo sapiens, 168 h, 7 days culture, 2% fetal bovine serum, read-out: Inhibitory activity (evaluated by IC50)
Description: as §2, §3
as §1, with “a” for “a 5% carbon dioxide incubator at”, “C. incubator” for “C.”
as §4, §5, §6, §7

IC50 (MCF-7 GNAQ (T96S) cells) [nM]	IC50 (MDA-MB-231) [nM]	IC50 [2] [nM]	Compound	CC50 at 5 days [1] [nM]
310 to 2500	310 to 2500	310 to 2500	O=C(Nc1cccc(-c2ccnc(-c3ccnc(Cl)c3)n2)c1)Nc1cc(Cl)nc(Cl)c1 [Compound 1]	> 20000
310 to 2500	310 to 2500	310 to 2500	O=C(Nc1cccc(-c2ccnc(-c3cccc(C(F)(F)F)c3)n2)c1)Nc1cc(Cl)nc(Cl)c1 [Compound 2]	10000 to 20000
310 to 2500	310 to 2500	310 to 2500	N#Cc1cccc(-c2nccc(-c3cccc(NC(=O)Nc4cc(Cl)nc(Cl)c4)c3)n2)c1 [Compound 3]	10000 to 20000
310 to 2500	310 to 2500	310 to 2500	O=C(Nc1cccc(-c2ccnc(-c3ccc(F)c(F)c3)n2)c1)Nc1cc(Cl)nc(Cl)c1 [Compound 4]	5000 to 10000
310 to 2500	310 to 2500	310 to 2500	O=C(Nc1cccc(-c2ccnc(-c3cccc(C(F)(F)F)c3)n2)c1)c1cc(Cl)nc(Cl)c1 [Compound 5]	> 20000
310 to 2500	2500 to 5000	2500 to 5000	O=C(Nc1ccc(-c2ccnc(-c3ccncc3)n2)cc1)Nc1ccc(Cl)c(C(F)(F)F)c1 [Compound 6]	10000 to 20000
310 to 2500	310 to 2500	310 to 2500	O=C(Nc1ccc(-c2ccnc(-c3cccc(C(F)(F)F)c3)n2)cc1)Nc1cc(Cl)nc(Cl)c1 [Compound 7]	10000 to 20000
310 to 2500	310 to 2500	310 to 2500	O=C(Nc1ccc(-c2ccnc(-c3cccc(C(F)(F)F)c3)n2)cc1)Nc1ccc(Cl)c(C(F)(F)F)c1 [Compound 8]	10000 to 20000
310 to 2500	310 to 2500	310 to 2500	O=C(Nc1ccc(-c2cccc(-c3cccc(C(F)(F)F)c3)n2)cc1)Nc1cc(Cl)nc(Cl)c1 [Compound 9]	10000 to 20000
310 to 2500	310 to 2500	310 to 2500	FC(F)(F)c1cccc(-c2cccc(-c3ccc(NC(=S)Nc4cc(Cl)nc(Cl)c4)cc3)n2)c1 [Compound 10]	> 20000
310 to 2500	310 to 2500	310 to 2500	N#Cc1cccc(-c2cccc(-c3ccc(NC(=S)Nc4cc(Cl)nc(Cl)c4)cc3)n2)c1 [Compound 11]	> 20000
310 to 2500	310 to 2500	310 to 2500	O=C(Nc1ccc(-c2cccc(-c3ccncc3)n2)cc1)Nc1ccc(Cl)c(C(F)(F)F)c1 [Compound 12]	10000 to 20000
310 to 2500	310 to 2500	310 to 2500	O=C(Nc1cccc(-c2cccc(-c3ccncc3)n2)c1)Nc1cc(Cl)nc(Cl)c1 [Compound 13]	> 20000
< 310	310 to 2500	310 to 2500	O=C(Nc1cccc(-c2cc(-c3cccc(C(F)(F)F)c3)ncn2)c1)Nc1cc(Cl)nc(Cl)c1 [Compound 14]	10000 to 20000
< 310	310 to 2500	310 to 2500	O=C(Nc1ccc(-c2nc(-c3ccccc3)ncc2Cl)cc1)Nc1cc(Cl)nc(Cl)c1 [Compound 15]	10000 to 20000
